Patent US20250241328A1, “REDUCTANT TREATMENT METHODS FOR FOOD PRODUCT PRECURSORS” (Impossible Foods Inc., priority 2022, published 2025)

Assays:
bacterial bioburden = assay: Bacterial bioburden of heme samples following HTST treatment; format: cell-based; settings: 15 mM and 35 mM cysteine, heme samples at pH 9.5
LegH = biological target: T1, LegH (Glycine max, UniProt P02236); assay: LegH concentration after HTST of LegH Prep by UPLC (thermostability); format: physicochemical, soy; settings: HTST 20 seconds, 68-72° C.
T1 construct: made in house; host or cells: Pichia
Experimental: This decrease in concentration is due to LegH aggregating or denaturing in response to heat. […] For UPLC, there is a resolved peak at the LegH retention time that can be tracked by 415 nm absorbance but the integration is performed on the 280 nm peak at that position.

[1] = Percent suspended solids after HTST of LegH Prep; format: physicochemical; settings: HTST 20 seconds, 68-72° C.
Excerpt: Suspended solid formation is likely due to aggregation or denaturation of the Pichia proteins within LegH Prep in response to heat. […] Increased suspended solids changes the physical properties of the protein solution and are typically associated with increased viscosity.

[2] = Colorimetric properties (L*c*h) of LegH Prep after HTST; format: physicochemical; settings: HTST 20 seconds, 68-72° C.
Experimental: This color decline is due to LegH denaturation as well as potentially off-color formation produced by Pichia proteins in response to heat. […] FIG. 6 was performed at 15 mM cysteine, a temperature of 65° C., and a duration of 20 seconds. Performing HTST in the presence of cysteine results in less change in both chroma and hue angle show a decrease after HTST compared to performing HTST in the absence of cysteine.

[3] = tested on: aerobic plate count (gram negative and gram positive bacteria); assay: Refrigerated shelf-life study of HTST-treated soy leghemoglobin, aerobic plate count; format: cell-based; settings: HTST-treated soy leghemoglobin (LegH)
Excerpt: APC captures both gram negative and gram positive bacteria, whereas lactic acid bacteria (LAB) captures gram positive bacteria (FIG. 1B).

Salmonella = assay: Pathogen reduction during HTST in leghemoglobin samples; format: cell-based; settings: cysteine treatment during HTST
Excerpt: (§1) Salmonella and E. coli are gram negative bacteria, and Listeria is gram positive. Addition of cysteine reduced the CFU/g of E. coli even in the absence of heat.
(§2) FIGS. 2A, 2B, and 2C are tables showing the reduction of pathogens in leghemoglobin samples with and without cysteine.

E. coli = assay: as above; format: cell-based
Excerpt: as §1, §2

Listeria = assay: as above; format: cell-based; settings: cysteine treatment during HTST
Excerpt: as §1, §2

T1 sequence (P02236 whole entry): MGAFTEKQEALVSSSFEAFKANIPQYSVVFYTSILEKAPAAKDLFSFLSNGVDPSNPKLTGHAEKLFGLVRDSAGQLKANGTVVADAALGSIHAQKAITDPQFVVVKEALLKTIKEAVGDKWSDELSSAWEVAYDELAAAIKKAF

N[C@@H](CS)C(=O)O [cysteine, L-cysteine]
bacterial bioburden CFU/g following HTST treatment (bacterial bioburden): decreases bacterial bioburden | decrease in LegH concentration after HTST (LegH): diminished in a dose-dependent manner | increase in percent suspended solids (% SS) after HTST [1]: diminished in a dose-dependent manner | decline in L*c*h after HTST [2]: diminished in a dose-dependent manner | aerobic plate count (APC) stability [3]: cysteine-dependent increase | CFU/g reduction of Salmonella (Salmonella): significantly increased | CFU/g reduction of E. coli (E. coli; cysteine treatment during HTST): significantly increased | CFU/g of E. coli (E. coli; in the absence of heat): reduced | CFU/g reduction of Listeria (Listeria): significantly increased
